Experiment [1] concerns Male NMRI mice. The experiment in a line: Forced swimming test (FST). Format: in vivo. Particulars: doses of 5 and 10 mg/kg p.o., may be a false positive from nonspecific stimulatory effect. As to the method:
The aim of this study was to evaluate the antidepressant activity of radiprodil. The forced swimming test is a behavioral assay that can be used to predict antidepressant efficacy of drugs in humans.
(§1) Male NMRI mice weighing 24-26 g were used. The animals were kept in polycarbonate cages in a thermostatically controlled room at 24+2° C. and at a relative humidity (RH) of 50±10%. The room was artificially illuminated from 6 am to 6 pm and the mice were given commercial pellet rat-mouse feed, autoclaved at 105° C. and sterile filtered tap water, ad libitum.
(§2) An aqueous solution of radiprodil, in the form of a complex with heptakis(2,6-di-O-methyl)-β-cyclodextrin(DIMEB), was administered orally at doses of 2.5, 5 and 10 mg/kg (calculated for non-complexed radiprodil). […]
The forced swimming test (FST) was measured in glass cylinders (height: […], diameter 14 cm) containing 12 cm of water, maintained at 23-25° C. […] The duration of immobility was recorded using a stopwatch. […]
In the forced swimming test, the mean±standard error on the mean (s.e.m) immobility time in seconds was measured. […] The mean (±s.e.m) “FST-activity” value was also calculated for each group and submitted to the same data analysis process as the immobility data.
The significance of the drug effect was determined by ANOVA followed by post-hoc Duncan-test. […]

Experiment [2] concerns Male NMRI mice. The experiment can be described thus: Spontaneous locomotor activity. The following applies: doses of 5 and 10 mg/kg p.o. Type of experiment: in vivo. As to the method:
as §1, §2
Spontaneous locomotor activity was measured in a four-channel activity monitor manufactured by Farmakotechnika (Hungary). […] The photocell beam, when broken, signaled a count, which was then recorded by a computer.
Each group consisted of 10 animals. […] The horizontal and vertical movements were determined as the number of beam interruptions collected in 15 minute intervals throughout the 1 hour period.
In the spontaneous locomotor activity test, the mean (±s.e.m) value of one hour horizontal activity data (in counts) of each group was calculated.
The significance of the drug effect was determined by ANOVA followed by post-hoc Duncan-test. The percentage change in the horizontal activity, immobility or “FST-activity” variables were calculated for each dose according to the equation; […]

For `O=C(Nc1ccc2[nH]c(=O)oc2c1)C(=O)N1CCC(Cc2ccc(F)cc2)CC1` [radiprodil, 2-[4-(4-fluoro-benzyl)-piperidine-1-yl]-2-oxo-N-(2-oxo-2,3-dihydro-benzoxazol-6-yl)acetamide], the “effect in the forced swimming test (in words)” value in the experiment on Male NMRI mice [1] is “significant effects”. Moreover, the “effect on spontaneous motor activity (in words)” value in the experiment with Male NMRI mice [2] is recorded as “stimulated the spontaneous motor activity”.
